PubChem BioAssay (NCI)
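Five concentrations, 48 hours, 96-well plates. TGI: concentration producing complete growth inhibition.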

Key:
Assay in all cases: NCI-60 cell line screen, 48 h
M14 melanoma = tested on: M14 melanoma
SF-268 CNS = tested on: SF-268 CNS
HT29 colon = tested on: HT29 colon
ACHN renal = tested on: ACHN renal
SK-OV-3 ovarian = tested on: SK-OV-3 ovarian
U251 CNS = tested on: U251 CNS
A549 NSCLC = tested on: A549 NSCLC
MCF7 breast = tested on: MCF7 breast
IGROV1 ovarian = tested on: IGROV1 ovarian
OVCAR-5 ovarian = tested on: OVCAR-5 ovarian
NCI-H23 lung = tested on: NCI-H23 lung
SN12C renal = tested on: SN12C renal

Structure (SMILES) | TGI (M14 melanoma) [µM] | TGI (SF-268 CNS) [µM] | TGI (HT29 colon) [µM] | TGI (ACHN renal) [µM] | TGI (SK-OV-3 ovarian) [µM] | TGI (U251 CNS) [µM] | TGI (A549 NSCLC) [µM] | TGI (MCF7 breast) [µM] | TGI (IGROV1 ovarian) [µM] | TGI (OVCAR-5 ovarian) [µM] | TGI (NCI-H23 lung) [µM] | TGI (SN12C renal) [µM]
CC1OC(OC2C(Oc3cc(O)c4c(c3)O[C@H](c3ccc(O)cc3)CC4=O)OC(CO)C(O)C2O)C(O)C(O)C1O (some centres undefined) | > 100 | > 100 | > 100 | > 100 | > 100 | > 100 | > 100 | > 100 | > 100 | > 100 | > 100 | > 100
Cn1c2ccccc2c(=O)c2[nH]c3ccccc3c21 | > 100 | 62.4 | > 100 | > 100 | > 100 | > 100 | > 100 | > 100 | > 100 | > 100 | > 100 | > 100
COC(=O)c1ccc(NCc2cc(O)ccc2O)cc1 | 39.5 | 31.5 | 50.7 | 24 | 48.8 | 24.5 | 39.2 | 27.3 | 24.5 | 29.1 | 32.9 | 41.2
COc1cc(C(=O)Oc2c(C#N)sc3c2c(=O)n(-c2ccccc2)c(=S)n3-c2ccccc2)cc(OC)c1OC | 25.6 | 84.2 | 22.4 | > 100 | > 100 | 45.9 | 95.3 | 57.1 | 41 | 46.7 | 38.9 | 32.3
Cc1ncc([N+](=O)[O-])n1CCNC(=O)Cn1c([N+](=O)[O-])cnc1C | > 100 | > 100 | > 100 | > 100 | > 100 | > 100 | > 100 | > 100 | > 100 | > 100 | > 100 | > 100
CN(C)Cc1cc(C(C)(C)C)cc(C2CCCCC2)c1O | > 100 | 32.5 | 13.5 | 28.9 | 28.7 | 27.4 | 26.5 | 36.4 | 34.8 | 34.9 | 72.2 | 29.9
C=C(C)C12CC3CC/C(=N/O)C(C1)C3(N1CCOCC1)C/C2=N/O (centres undefined) | > 100 | > 100 | > 100 | > 100 | > 100 | > 100 | > 100 | > 100 | > 100 | > 100 | > 100 | > 100
